Test results: patent publication US12110289B2, “Heterocyclic compounds, preparation methods and uses thereof” (InventisBio Co., Ltd., priority 2020, dated 2024)

System: Lung cancer cell line NCI-H358 containing KRas G12C mutation
Test: Assay for cell proliferation (Cell-titer Glo, 5 days)
Assay type: cell-based, human
Conditions: Homo sapiens, NCI-H358, 120 h, NCI-H358, 5 days, Cell-titer Glo; read-out: IC50 (nM), Inhibition of NCI-H358 Cell Proliferation
Outline: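 NCI-H358 (KRas G12C) cells, 2000 per well, attached overnight at 37 °C, 5% CO2, then treated with compound for 5 days at 0.5% DMSO final. Proliferation measured by CellTiter-Glo luminescence after 10 min at RT.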

Going from `C=CC(=O)N1CCN(c2nc(=O)n(-c3c(C4CC4)nc(N4CCNCC4)nc3C3CC3)c3nc(-c4ccccc4F)c(Cl)cc23)[C@@H](C)C1` [Compound 116] to `C=CC(=O)N1CCN(c2nc(=O)n(-c3c(C4CC4)nc(OC(F)F)nc3C3CC3)c3nc(-c4c(N)cccc4F)c(F)cc23)[C@@H](C)C1` [Compound 119], the IC50 falls from 15.8 nM to 9.6 nM (1.6-fold). The second is the more potent here.

First: C=CC(=O)N1CCN(c2nc(=O)n(-c3c(C(C)C)nc4ocnc4c3C)c3nc(-c4ccccc4F)c(Cl)cc23)[C@@H](C)C1 [Compound 117]
Second: C=CC(=O)N1CCN(c2nc(=O)n(-c3c(C(C)C)nc(C(F)(F)F)nc3C(C)C)c3nc(-c4c(N)cccc4F)c(F)cc23)[C@@H](C)C1 [Compound 118]
The IC50 of the first is 3.1-fold lower: 12.9 nM for the first, 40.2 nM for the second. The first is the more potent here.

`C[C@H]1CN(C(=O)/C=C/CN2CC(F)C2)CCN1c1nc(=O)n(-c2c(C3CC3)ncnc2C2CC2)c2nc(-c3c(N)cccc3F)c(Cl)cc12` [Compound 120] and `C=C(F)C(=O)N1CCN(c2nc(=O)n(-c3c(C4CC4)ncnc3C3CC3)c3nc(-c4c(N)cccc4F)c(Cl)cc23)[C@@H](C)C1` [Compound 131] are within 1.5-fold of each other in IC50: 146 nM for the first, 210 nM for the second.

`C=CC(=O)N1C[C@H](C)N(c2nc(=O)n(-c3c(C(C)C)nc(C(=O)O)nc3C(C)C)c3nc(-c4ccccc4F)c(F)cc23)C[C@H]1C` [Compound 121] and `C=CC(=O)N1C[C@H](C)N(c2nc(=O)n(-c3c(C(C)C)nc(C(=O)O)nc3C(C)C)c3nc(-c4c(O)cccc4F)c(F)cc23)C[C@H]1C` [Compound 122] cannot be ordered by IC50: greater than 3000 nM for the first, greater than 3000 nM for the second.

Compared with `C=CC(=O)N1C[C@H](C)N(c2nc(=O)n(-c3c(C(C)C)nc(C(=O)O)nc3C(C)C)c3nc(-c4c(N)cccc4F)c(F)cc23)C[C@H]1C` [Compound 123], `C=CC(=O)N1C[C@H](C)N(c2nc(=O)n(-c3c(F)cc4c(ncn4C)c3C(C)C)c3nc(-c4c(O)cccc4F)c(Cl)cc23)C[C@H]1C` [Compound 166] is lower in IC50: greater than 3000 nM for the first, 1.5 nM for the second. The second is the more potent here.

First: C=C(F)C(=O)N1C[C@H](C)N(c2nc(=O)n(-c3c(C4CC4)ncnc3C3CC3)c3nc(-c4c(N)cccc4F)c(Cl)cc23)C[C@H]1C [Compound 132]
Second: COC/C=C/C(=O)N1C[C@H](C)N(c2nc(=O)n(-c3c(C4CC4)ncnc3C3CC3)c3nc(-c4c(N)cccc4F)c(Cl)cc23)C[C@H]1C [Compound 140]
The IC50 of the first is 2.7-fold higher: 157 nM for the first, 58.7 nM for the second.

Same assay, conditions: NCI-H358, 5 days, Cell-titer Glo; read-out: IC50 (nM), Inhibition of NCI-H358 Cell Proliferation

Compared with `C=CC(=O)N1CCN(c2nc(=O)n(-c3c(C)cc4c(ncn4C)c3C(C)C)c3nc(-c4c(N)cccc4F)c(Cl)cc23)[C@@H](C)C1` [Compound 152], `C=CC(=O)N1CCN(c2nc(=O)n(-c3c(C)nc4c(ncn4C)c3C(C)C)c3nc(-c4c(N)cccc4F)c(F)cc23)[C@@H](C)C1` [Compound 157] is 380-fold higher in IC50: 0.4 nM for the first, 152 nM for the second. The first is the more potent here.

`C=CC(=O)N1C[C@H](C)N(c2nc(=O)n(-c3c(C(C)C)nc4c(ncn4C)c3C)c3nc(-c4ccccc4F)c(Cl)cc23)C[C@H]1C` [Compound 181] showed an IC50 of 44.4 nM.
